Measured values: US7605156B2, “Methods for the use of inhibitors of cytosolic phospholipase A2” (Wyeth, priority 2001, dated 2009)

Biological target: T1, cPLA2 (Homo sapiens, UniProt P47712)
T1 sequence (P47712 1-749): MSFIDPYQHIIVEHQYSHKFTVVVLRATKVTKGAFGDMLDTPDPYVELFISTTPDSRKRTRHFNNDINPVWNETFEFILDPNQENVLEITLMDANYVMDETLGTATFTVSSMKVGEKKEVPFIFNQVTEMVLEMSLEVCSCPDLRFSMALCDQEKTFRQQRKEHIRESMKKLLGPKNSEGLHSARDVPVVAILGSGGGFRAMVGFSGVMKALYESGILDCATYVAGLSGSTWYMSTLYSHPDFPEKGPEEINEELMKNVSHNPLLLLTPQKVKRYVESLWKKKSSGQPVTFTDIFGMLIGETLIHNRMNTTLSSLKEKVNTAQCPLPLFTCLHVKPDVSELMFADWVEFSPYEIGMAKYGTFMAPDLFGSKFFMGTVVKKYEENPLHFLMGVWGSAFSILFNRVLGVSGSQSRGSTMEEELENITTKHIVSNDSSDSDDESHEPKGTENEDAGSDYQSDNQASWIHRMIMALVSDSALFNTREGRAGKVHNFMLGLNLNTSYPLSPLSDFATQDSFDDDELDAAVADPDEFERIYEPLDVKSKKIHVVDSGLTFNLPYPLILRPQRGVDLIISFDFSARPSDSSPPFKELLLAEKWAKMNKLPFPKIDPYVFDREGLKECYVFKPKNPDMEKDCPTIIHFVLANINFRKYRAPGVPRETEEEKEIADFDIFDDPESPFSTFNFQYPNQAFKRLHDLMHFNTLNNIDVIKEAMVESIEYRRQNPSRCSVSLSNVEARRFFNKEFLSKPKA
Assay: Coumarine assay (hydrolysis of 7-hydroxycoumarinyl 6-heptenoate)
Format: biochemical
Details: 60 μM 7-hydroxycoumarinyl 6-heptenoate, pH 7.5; read-out: Coumarin IC50

Cc1cccc(Cl)c1S(=O)(=O)NCCc1c(CCOc2ccc(C(=O)O)c(F)c2)c2cc(Cl)ccc2n1C(c1ccccc1)c1ccccc1 [Example 191, 4-(2-{1-Benzhydryl-5-chloro-2-[2-(2-chloro-6-methyl-benzenesulfonylamino)-ethyl]-1H-indol-3-yl}-ethoxy)-2-fluoro-benzoic acid]
IC50: 200 nM

O=S(=O)(Cc1ccc(Cl)c(Cl)c1)NCCc1c(CCOc2ccc(-c3nn[nH]n3)cc2)c2cc(Cl)ccc2n1C(c1ccccc1)c1ccccc1 [Example 192, N-[2-(1-benzhydryl-5-chloro-3-{2-[4-(2H-tetraazol-5-yl)phenoxy]ethyl}-1H-indol-2-yl)ethyl]-1-(3,4-dichlorophenyl)methanesulfonamide]
IC50: < 3700 nM

O=S(=O)(NCCc1c(CCOc2ccc(-c3nn[nH]n3)cc2)c2cc(Cl)ccc2n1C(c1ccccc1)c1ccccc1)c1ccccc1Cl [Example 193, N-[2-(1-benzhydryl-5-chloro-3-{2-[4-(2H-tetrazol-5-yl)-phenoxy]-ethyl}-1H-indol-2-yl)-ethyl]-2-chlorobenzenesulfonamide]
IC50: 1800 nM

O=C(O)c1ccc(OCCc2c(CCNS(=O)(=O)c3c(F)cc(F)cc3F)n(C(c3ccccc3)c3ccccc3)c3ccc(Cl)cc23)cc1 [Example 196, 4-(2-{1-Benzhydryl-5-chloro-2-[2-(2,4,6-trifluoro-benzenesulfonylamino)-ethyl]-1H-indol-3-yl}-ethoxy)-benzoic acid]
IC50: 560 nM

COc1ccc(S(=O)(=O)NCCc2c(CCOc3ccc(C(=O)O)cc3)c3cc(Cl)ccc3n2C(c2ccccc2)c2ccccc2)c([N+](=O)[O-])c1 [Example 197, 4-(2-{1-Benzhydryl-5-chloro-2-[2-(4-methoxy-2-nitro-benzenesulfonylamino)-ethyl]-1H-indol-3-yl}-ethoxy)-benzoic acid]
IC50: 400 nM

O=C(O)c1ccc(OCCc2c(CCNS(=O)(=O)c3cccc(OC(F)(F)F)c3)n(C(c3ccccc3)c3ccccc3)c3ccc(Cl)cc23)cc1 [Example 198, 4-(2-{1-Benzhydryl-5-chloro-2-[2-(3-trifluoromethoxy-benzenesulfonylamino)-ethyl]-1H-indol-3-yl}-ethoxy)-benzoic acid]
IC50: 700 nM

O=C(O)c1ccc(CCCc2c(CCNS(=O)(=O)c3c(F)cc(F)cc3F)n(C(c3ccccc3)c3ccccc3)c3ccc(Cl)cc23)cc1 [Example 199, 4-(3-{1-Benzhydryl-5-chloro-2-[2-(2,4,6-trifluoro-benzenesulfonylamino)-ethyl]-1H-indol-3-yl}-propyl)-benzoic acid]
IC50: 450 nM

COc1ccc(S(=O)(=O)NCCc2c(CCCc3ccc(C(=O)O)cc3)c3cc(Cl)ccc3n2C(c2ccccc2)c2ccccc2)c([N+](=O)[O-])c1 [Example 200, 4-(3-{1-Benzhydryl-5-chloro-2-[2-(4-methoxy-2-nitro-benzenesulfonylamino)-ethyl]-1H-indol-3-yl}-propyl)-benzoic acid]
IC50: 350 nM

O=C(O)c1ccc(CCCc2c(CCNS(=O)(=O)c3cccc(OC(F)(F)F)c3)n(C(c3ccccc3)c3ccccc3)c3ccc(Cl)cc23)cc1 [Example 201, 4-(3-{1-Benzhydryl-5-chloro-2-[2-(3-trifluoromethoxy-benzenesulfonylamino)-ethyl]-1H-indol-3-yl}-propyl)-benzoic acid]
IC50: 350 nM

CS(=O)(=O)c1ccc(S(=O)(=O)NCCc2c(CCCc3ccc(C(=O)O)cc3)c3cc(Cl)ccc3n2C(c2ccccc2)c2ccccc2)cc1 [Example 202, 4-(3-{1-Benzhydryl-5-chloro-2-{2-({[4-(methysulfonyl)phenyl]sulfonyl}amino)ethyl]-1H-indol-3-yl}propyl)benzoic acid]
IC50: 300 nM

CS(=O)(=O)c1ccc(S(=O)(=O)NCCc2c(CCOc3ccc(C(=O)O)cc3)c3cc(Cl)ccc3n2C(c2ccccc2)c2ccccc2)cc1 [Example 203, 4-(2-{1-benzhydryl-5-chloro-2-[2({[4-(methylsulfony)phenyl]sulfonyl}amino)ethyl]-1H-indol-3-yl}ethoxy)benzoic acid]
IC50: 690 nM

CS(=O)(=O)c1ccccc1S(=O)(=O)NCCc1c(CCCc2ccc(C(=O)O)cc2)c2cc(Cl)ccc2n1C(c1ccccc1)c1ccccc1 [Example 204, 4-(3-{1-Benzhydryl-5-chloro-2-[2({[2-(methylsulfonyl)phenyl]sulfonyl}amino)ethyl]-1H-indol-3-yl}propyl)benzoic acid]
IC50: 200 nM

CS(=O)(=O)c1ccccc1S(=O)(=O)NCCc1c(CCOc2ccc(C(=O)O)cc2)c2cc(Cl)ccc2n1C(c1ccccc1)c1ccccc1 [Example 205]
IC50: 370 nM

O=C(O)c1ccc(CCCc2c(CCNS(=O)(=O)c3cccc(-c4ccccc4)c3)n(C(c3ccccc3)c3ccccc3)c3ccc(Cl)cc23)cc1 [Example 206, 4-[3-(1-benzhydryl-2-{-2-[-(1,1′-biphenyl-3-ylsulfonyl)amino]ethyl}-5-chloro-1H-indol-3-yl)propyl]benzoic acid]
IC50: 500 nM

O=C(O)c1ccc(OCCc2c(CCNS(=O)(=O)c3cccc(-c4ccccc4)c3)n(C(c3ccccc3)c3ccccc3)c3ccc(Cl)cc23)cc1 [Example 207, 4-[2-(1-benzhydryl-2-{2-[(1,1′-biphenyl-3-ylsulfonyl)amino]ethyl}-5-chloro-1H-indol-3-yl)ethoxy]benzoic acid]
IC50: 1400 nM

O=C(O)c1ccc(CCCc2c(CCNS(=O)(=O)c3ccccc3C(F)(F)F)n(C(c3ccccc3)c3ccccc3)c3ccc(Cl)cc23)cc1 [Example 208]
IC50: 240 nM

O=C(O)c1ccc(OCCc2c(CCNS(=O)(=O)c3ccccc3C(F)(F)F)n(C(c3ccccc3)c3ccccc3)c3ccc(Cl)cc23)cc1 [Example 209, 4-[2-{1-Benzhydryl-5-chloro-2-[2-({[2-(trifluoromethyl)phenyl]sulfonyl}amino)ethyl]-1H-indol-3-yl}ethoxy)benzoic acid]
IC50: 350 nM

Cc1c(S(=O)(=O)NCCc2c(CCCc3ccc(C(=O)O)cc3)c3cc(Cl)ccc3n2C(c2ccccc2)c2ccccc2)cnn1-c1ccccc1 [Example 210, 4-{3-[1-benzhydryl-5-chloro-2-(2-{[(5-methyl-1-phenyl-1H-pyrazol-4-yl)sulfonyl]amino}ethyl)-1H-indol-3-yl]propyl}benzoic acid]
IC50: 150 nM

Cc1c(S(=O)(=O)NCCc2c(CCOc3ccc(C(=O)O)cc3)c3cc(Cl)ccc3n2C(c2ccccc2)c2ccccc2)cnn1-c1ccccc1 [Example 211, 4-{2-[1-benzhydryl-5-chloro-2-(2-{[(5-methyl-1-phenyl-1H-pyrazol-4-yl)sulfonyl]amino}ethyl)-1H-indol-3-yl]ethoxy}benzoic acid]
IC50: 400 nM

Cc1nn(C)c(C)c1S(=O)(=O)NCCc1c(CCCc2ccc(C(=O)O)cc2)c2cc(Cl)ccc2n1C(c1ccccc1)c1ccccc1 [Example 212, 4-{3-[1-benzhydryl-5-chloro-2-(2-{[(1,3,5-trimethyl-1H-pyrazol-4-yl)sulfonyl]amino}ethyl)-1H-indol-3-yl]propyl}benzoic acid]
IC50: 180 nM

Cc1nn(C)c(C)c1S(=O)(=O)NCCc1c(CCOc2ccc(C(=O)O)cc2)c2cc(Cl)ccc2n1C(c1ccccc1)c1ccccc1 [Example 213, 4-{2-[1-benzhydryl-5-chloro-2-(2-{[(1,3,5-trimethyl-1H-pyrazol-4-yl)sulfonyl]amino}ethyl)-1H-indol-3-yl]ethoxy}benzoic acid]
IC50: 450 nM

O=C(O)c1ccc(OCCc2c(CCNS(=O)(=O)c3ccc(-c4ccc(F)cc4)cc3)n(C(c3ccccc3)c3ccccc3)c3ccc(Cl)cc23)cc1 [Example 217, 4-{2-[1-benzhydryl-5-chloro-2-(2-{[(4′-fluoro-1,1′-biphenyl-4-yl)sulfonyl]amino}ethyl)-1H-indol-3-yl]ethoxy}benzoic acid]
IC50: 2600 nM

O=C(O)c1ccc(CCCc2c(CCNS(=O)(=O)c3cccc(C(F)(F)F)c3)n(C(c3ccccc3)c3ccccc3)c3ccc(Cl)cc23)cc1 [Example 218, 4-(3-{1-Benzhydryl-5-chloro-2-[2-({[3-(trifluoromethyl)phenyl]sulfonyl}amino)ethyl]-1H-indol-3-yl}propyl)benzoic acid]
IC50: 140 nM

O=C(O)c1ccc(OCCc2c(CCNS(=O)(=O)c3cccc(C(F)(F)F)c3)n(C(c3ccccc3)c3ccccc3)c3ccc(Cl)cc23)cc1 [Example 219, 4-(2-{1-benzhydryl-5-chloro-2-[2-({[3-(trifluoromethyl)phenyl]sulfonyl}amino)ethyl]-1H-indol-3-yl}ethoxy)benzoic acid]
IC50: 400 nM

O=C(O)c1ccc(OCCc2c(CCNS(=O)(=O)CSc3ccc(Cl)c(Cl)c3)n(C(c3ccccc3)c3ccccc3)c3ccc(Cl)cc23)cc1 [Example 220, 4-[2-(1-benzhydryl-5-chloro-2-{2-[({[(3,4-dichlorophenyl)thio]methyl}sulfonyl)amino]ethyl}-1H-indol-3-yl)ethoxy]benzoic acid]
IC50: 400 nM

O=C(O)c1ccc(OCCc2c(CCNS(=O)(=O)CSc3ccc(F)c(Cl)c3)n(C(c3ccccc3)c3ccccc3)c3ccc(Cl)cc23)cc1 [Example 221, 4-[2-(1-benzhydryl-5-chloro-2-{2-[({[(3-chloro-4-fluorophenyl)thio]methyl}sulfonyl)amino]ethyl}-1H-indol-3-yl)ethoxy]benzoic acid]
IC50: 500 nM
